The values below come from ChEMBL document CHEMBL5113521, “Discovery of a Novel Oral Proteasome Inhibitor to Block NLRP3 Inflammasome Activation with Anti-inflammation Activity” (J Med Chem, 2022).

Calls of active or inactive are those of the source. The calls are words filed in the database; no cut-off is given here.

The nature of data set [1]: MRT (0 to infinity) in Sprague-Dawley rat at 0.5 mg/kg, iv measured upto 24 hrs by liquid chromatography tandem mass spectrometry. The format is ADME, organism-based. The settings on record: in vivo.
Data set [2] deals with NACHT, LRR and PYD domains-containing protein 3 (Mus musculus) (UniProt Q8R4B8). Put plainly: Inhibition of NLRP3 inflammasome activation in LPS-primed mouse J774.A1 cells assessed as reduction in IL-1beta secretion preincubated for 1 hr followed by nigericin stimulation and measured after 1 hr by ELISA. The format is cell-based. The settings on record: time 2.0 hrs, DDE = dose-dependent effect. For orientation: ELISA stands for enzyme-linked immunosorbent assay.

The target in data set [3] is T1, Interferon-inducible protein AIM2 (Mus musculus) (UniProt Q91VJ1).
T1 sequence (whole entry): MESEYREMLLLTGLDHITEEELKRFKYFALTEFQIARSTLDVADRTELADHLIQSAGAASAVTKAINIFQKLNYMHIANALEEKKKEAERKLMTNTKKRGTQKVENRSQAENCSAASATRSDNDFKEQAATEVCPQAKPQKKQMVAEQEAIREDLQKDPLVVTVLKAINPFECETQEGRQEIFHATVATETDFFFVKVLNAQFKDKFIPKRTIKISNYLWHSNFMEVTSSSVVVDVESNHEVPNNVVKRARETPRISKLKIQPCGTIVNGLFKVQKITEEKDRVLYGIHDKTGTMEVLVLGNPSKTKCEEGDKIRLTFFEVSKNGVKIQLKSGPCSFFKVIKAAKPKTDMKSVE
The experiment in a line: Inhibition of AIM2 inflammasome activation in LPS-primed mouse BMDM cells assessed as reduction in IL-1beta secretion at 7.5 to 60 nM preincubated for 1 hr followed by FLA-ST Ultrapure stimulation by ELISA. Format: cell-based. The note with it: dose 7.5-60 nM.

For data set [4], the species on record is Mus musculus. The experiment in a line: Protection against DSS-induced C57BL/6 mouse ulcerative colitis model assessed as reduction in IL-1 beta in colon homogenate by ELISA. The format is functional, organism-based. The settings on record: dose 0.125-0.5 mg/kg, route po, DDE = dose-dependent effect.
In data set [5] the test system is Mus musculus. Put plainly: Anti-colitis activity against DSS-induced C57BL/6 mouse model assessed as suppression of DSS induced fecal occult blood at 0.125 to 0.5 mg/kg, po administered every 72 hrs for 10 days. Format: functional, organism-based. The note with it: dose 0.125-0.5 mg/kg, time 10.0 day.
Data set [6] can be described thus: Half life in Sprague-Dawley rat at 0.5 mg/kg, iv measured upto 24 hrs by liquid chromatography tandem mass spectrometry. The format is ADME, organism-based. The note with it: in vivo.
Data set [7] concerns the target NACHT, LRR and PYD domains-containing protein 3 (Mus musculus) (UniProt Q8R4B8). Put plainly: Inhibition of NLRP3 inflammasome activation in LPS-stimulated mouse J774.A1 cells assessed as increase in polyubiquitinated NLRP3 preincubated for 1 hr followed by nigericin stimulation measured after 1 hr by immunoblot analysis. Format: cell-based. The settings on record: dose 7.5-60 nM, time 2.0 hrs, DDE = dose-dependent effect. In general terms: In western blotting, separated proteins are transferred to a membrane and probed.

Data set [8] can be described thus: Cytotoxicity against HEK293 cells incubated for 24 hrs. Format: toxicity, cell-based. The note with it: human.
Data set [9] relates to J774.A1. Put plainly: Inhibition of NF-kappaB in LPS treated mouse J774.A1 cells assessed as reduction in phosphorylated p65 level at 60 nM incubated for 1 hr followed by LPS stimulation measured after 5 hrs by Western blot analysis. The format is cell-based. The note with it: time 6.0 hrs.
The target in data set [10] is NACHT, LRR and PYD domains-containing protein 3 (Mus musculus) (UniProt Q8R4B8). Put plainly: Inhibition of NLRP3 inflammasome activation in LPS-stimulated mouse J774.A1 cells assessed as increase in c-Cbl expression at 7.5 to 60 nM preincubated for 1 hr followed by nigericin stimulation measured after 1 hr by immunoblot analysis. Format: cell-based. The note with it: dose 7.5-60 nM, time 2.0 hrs.

The target is the same in data set [11]. The experiment in a line: Inhibition of NLRP3 inflammasome activation in LPS-stimulated mouse J774.A1 cells assessed as increase in Cbl-b expression at 30 to 100 nM preincubated for 1 hr followed by nigericin stimulation measured after 1 hr by immunoblot analysis. The format is cell-based. The settings on record: dose 30-100 nM, time 2.0 hrs.
A short description of data set [12]: Tmax in Sprague-Dawley rat at 0.5 mg/kg, iv measured upto 24 hrs by liquid chromatography tandem mass spectrometry. Format: ADME, organism-based. The settings on record: in vivo.
Data set [13] is described as follows: AUC (0 to infinity) in Sprague-Dawley rat at 0.5 mg/kg, iv measured upto 24 hrs by liquid chromatography tandem mass spectrometry. Format: ADME, organism-based. On the set-up: time < 24 hrs, dose 0.5 mg/kg, route iv. The settings on record: in vivo.
In data set [14] the test system is J774.A1. Put plainly: Inhibition of NF-kappaB in LPS treated mouse J774.A1 cells assessed as reduction in TNFalpha level at 7.5 to 60 nM incubated for 1 hr followed by LPS stimulation measured after 5 hrs by Western blot analysis. The format is cell-based. The note with it: dose 7.5-60 nM, time 6.0 hrs.
Data set [15] addresses T2, Proteasome Macropain subunit MB1 (Homo sapiens, UniProt P28074).
T2 sequence (P28074 whole entry): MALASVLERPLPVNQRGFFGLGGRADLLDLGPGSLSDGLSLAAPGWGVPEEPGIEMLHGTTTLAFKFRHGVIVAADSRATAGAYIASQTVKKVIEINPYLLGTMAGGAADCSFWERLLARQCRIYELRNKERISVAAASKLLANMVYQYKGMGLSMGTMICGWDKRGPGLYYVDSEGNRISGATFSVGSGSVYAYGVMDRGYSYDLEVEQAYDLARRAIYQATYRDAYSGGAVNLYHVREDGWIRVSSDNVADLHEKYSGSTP
The experiment in a line: Inhibition of 20S proteasome beta5 subunit (unknown origin) using Suc-LLVY-AMC as flurogenic substrate measured after 1 hr by fluorescence based analysis. The settings on record: read-out: IC50.

For data set [16], the system named is J774.A1. The experiment in a line: Inhibition of NF-kappaB in LPS treated mouse J774.A1 cells assessed as reduction in NLRP3 level at 60 nM incubated for 1 hr followed by LPS stimulation measured after 5 hrs by Western blot analysis. Format: cell-based. The note with it: time 6.0 hrs.
For data set [17], the target named is NACHT, LRR and PYD domains-containing protein 3 (Mus musculus) (UniProt Q8R4B8). The experiment in a line: Inhibition of NLRP3 inflammasome activation in LPS/nigericin stimulated mouse BMDM cells assessed as […] in ASC speck formation at 15 to 60 nM preincubated for 1 hr followed by LPS/nigericin stimulation by DAPI staining based immunofluorescence assay. The format is cell-based. The note with it: dose 15-60 nM.

The target is the same in data set [18]. The experiment in a line: Inhibition of NLRP3 inflammasome activation in LPS-primed mouse J774.A1 cells assessed as inhibition of caspase-1 p20 subunit release in supernatant preincubated for 1 hr followed by nigericin stimulation measured after 1 hr by Western blot analysis. The format is cell-based. The settings on record: dose 7.5-60 nM, time 2.0 hrs, DDE = dose-dependent effect.

The nature of data set [19]: Apparent volume of distribution in Sprague-Dawley rat at 0.5 mg/kg, iv measured upto 24 hrs by liquid chromatography tandem mass spectrometry. Format: ADME, organism-based. The note with it: in vivo, read-out: Vz.

Sequence of NACHT, LRR and PYD domains-containing protein 3 (Mus musculus) (Q8R4B8 whole entry, the tested form may be a part): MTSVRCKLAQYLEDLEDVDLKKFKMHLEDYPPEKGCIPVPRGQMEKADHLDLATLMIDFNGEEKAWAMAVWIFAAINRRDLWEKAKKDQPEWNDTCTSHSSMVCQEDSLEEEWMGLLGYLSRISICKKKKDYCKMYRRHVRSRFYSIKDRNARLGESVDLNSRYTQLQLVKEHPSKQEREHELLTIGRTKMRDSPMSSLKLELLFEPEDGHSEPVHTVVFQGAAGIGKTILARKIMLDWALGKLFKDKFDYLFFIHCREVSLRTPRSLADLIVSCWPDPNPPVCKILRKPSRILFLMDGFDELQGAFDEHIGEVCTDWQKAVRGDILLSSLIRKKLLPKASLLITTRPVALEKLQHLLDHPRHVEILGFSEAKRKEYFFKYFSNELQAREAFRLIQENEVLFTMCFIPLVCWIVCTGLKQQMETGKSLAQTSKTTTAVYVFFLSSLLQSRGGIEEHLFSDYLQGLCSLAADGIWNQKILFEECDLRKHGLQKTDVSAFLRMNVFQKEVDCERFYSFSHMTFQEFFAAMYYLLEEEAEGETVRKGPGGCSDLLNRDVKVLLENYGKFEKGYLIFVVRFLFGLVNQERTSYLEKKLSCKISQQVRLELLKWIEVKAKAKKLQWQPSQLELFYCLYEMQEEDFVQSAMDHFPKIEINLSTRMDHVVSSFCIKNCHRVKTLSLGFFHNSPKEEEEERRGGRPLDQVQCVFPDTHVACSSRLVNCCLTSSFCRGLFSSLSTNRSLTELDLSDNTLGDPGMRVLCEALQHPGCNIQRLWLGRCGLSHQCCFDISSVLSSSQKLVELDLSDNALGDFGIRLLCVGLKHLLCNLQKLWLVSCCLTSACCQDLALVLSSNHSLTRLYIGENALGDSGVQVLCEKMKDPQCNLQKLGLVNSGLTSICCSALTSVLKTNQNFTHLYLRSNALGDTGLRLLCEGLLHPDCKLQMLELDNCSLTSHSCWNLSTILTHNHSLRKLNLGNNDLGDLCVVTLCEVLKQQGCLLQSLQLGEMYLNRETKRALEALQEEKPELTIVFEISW

Usually MRT inf stands for a mean duration of stay, worked out from the concentration-time curve. For orientation: IC50 means the concentration needed to halve the response being measured. By Tmax is commonly meant the time from dosing to the highest level. Broadly, the AUC is concentration integrated over time. Read a low AUC as less exposure. For the molecule `CC(C)C[C@H](NC(=O)[C@H](Cc1ccccc1)NC(=O)c1c(F)cccc1F)B(O)O`, the MRT inf in [1] worked out at 6.14 h. Besides, the inhibition entry in data set [2] and in data set [18] was “Dde” throughout. In addition, the inhibition entry (in data set [3]; in the data set with J774.A1 [9]; in the data set on J774.A1 [14]; with J774.A1 [16]; in [17]) was “Active” each time. Also, the Activity result (in the data set filed under Mus musculus [4]; in [7]) was “Dde” in each case. Moreover, the outcome (in the data set with Mus musculus [5]; in [10]; in [11]) was Active. For the same molecule, the t1/2 in [6] amounted to 4.73 h. The IC50 at 24 h in data set [8] was below 79.4 nM. Besides, the Tmax in [12] came to 4.8 min. Also, the AUC in [13] was 448.8 ng·h/mL. The IC50 in [15] is 3.7 nM. The Vd in data set [19] was found to be 7.7 L/kg.
